This experiment deals with T1, Prostaglandin G/H synthase 1 (Ovis aries, UniProt P05979).
T1 sequence (P05979 whole entry): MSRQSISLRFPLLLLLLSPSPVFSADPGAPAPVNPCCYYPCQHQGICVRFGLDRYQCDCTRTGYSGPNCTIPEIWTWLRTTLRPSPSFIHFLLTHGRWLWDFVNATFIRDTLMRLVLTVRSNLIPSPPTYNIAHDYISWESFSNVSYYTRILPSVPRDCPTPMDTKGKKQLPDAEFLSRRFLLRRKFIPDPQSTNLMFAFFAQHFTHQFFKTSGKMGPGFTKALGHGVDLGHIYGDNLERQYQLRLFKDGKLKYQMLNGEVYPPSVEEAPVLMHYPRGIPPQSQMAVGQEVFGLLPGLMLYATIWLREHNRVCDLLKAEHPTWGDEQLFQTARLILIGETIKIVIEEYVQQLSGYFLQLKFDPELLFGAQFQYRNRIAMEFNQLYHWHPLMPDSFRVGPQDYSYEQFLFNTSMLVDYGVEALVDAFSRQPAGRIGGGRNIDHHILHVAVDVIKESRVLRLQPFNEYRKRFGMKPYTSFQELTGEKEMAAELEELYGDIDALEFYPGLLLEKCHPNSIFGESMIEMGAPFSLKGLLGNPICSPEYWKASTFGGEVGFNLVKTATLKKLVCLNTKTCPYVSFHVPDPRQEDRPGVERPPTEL
Description: Inhibition of ovine COX1 by chemiluminescent enzyme assay
`Cc1cccc2c(C(=O)O)cc(-c3ccc(S(C)(=O)=O)cc3)nc12` registered an IC50 of 14.2 µM.

`CS(=O)(=O)c1ccc(-c2cc(C(=O)O)c3ccc4ccccc4c3n2)cc1` returned a half-inhibitory concentration (IC50) of 17.6 µM.

For `Cc1ccc2c(C(=O)O)cc(-c3ccc(S(C)(=O)=O)cc3)nc2c1C`, the IC50 was found to be 14.5 µM.

Turning to `CS(=O)(=O)c1ccc(-c2cc(C(=O)O)c3cccc(-c4ccccc4)c3n2)cc1`, half-maximal inhibition (IC50) was put at 14.7 µM.

Consider `CS(=O)(=O)c1ccc(-c2cc(C(=O)O)c3ccccc3n2)cc1`, for which the IC50 was determined as 13.4 µM.

Molecule `CS(=O)(=O)c1ccc(-c2cc(C(=O)O)c3ccc4c(c3n2)CCCC4)cc1` returned an IC50 of 22.1 µM.

In general, IC50 refers to the concentration that inhibits the measured activity by half. A high value points to weaker potency.

Source of the values: ChEMBL document CHEMBL1155266, “Synthesis and biological evaluation of new 4-carboxyl quinoline derivatives as cyclooxygenase-2 inhibitors” (Bioorg Med Chem, 2009).
